This is an account of results in US10696692B2, “Amido-benzyl sulfone and sulfoxide derivates” (Forma TM, LLC, priority 2012, dated 2020).

One assay addresses NAMPT (Homo sapiens (Human), UniProt P43490). The assay is described as follows: Assay 1: Biochemical Inhibition Assay (NAMPT enzymatic reaction, NMN quantified by mass spectrometry).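 Note: recombinant His-tagged human NAMPT preincubated with compound 15 min, then reacted 30 min at rt with 1 µM NAM, 100 µM PRPP, 2.5 mM ATP, NMN product read by RapidFire MS, normalized to L-Cystathionine internal standard.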 To be noted: read-out: Biochemical (IC50).
The test system of a further assay is A2780 cells. Kind of assay: Assay 2: In-Vitro Cell Proliferation Assay (A2780 cells, SRB readout, 72 hours).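 Note: viable cells counted via sulforhodamine B staining, absorbance at 570 nm, after 72 h exposure at 37 °C, DMSO 0.1% as control, media-only background subtracted.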 The format is cell-based. To be noted: A2780 cells, 72 hours, SRB, read-out: Cell Proliferation (IC50).

Where two headings read alike, the source gives them in different places.

NAMPT, sequence (P43490 whole entry): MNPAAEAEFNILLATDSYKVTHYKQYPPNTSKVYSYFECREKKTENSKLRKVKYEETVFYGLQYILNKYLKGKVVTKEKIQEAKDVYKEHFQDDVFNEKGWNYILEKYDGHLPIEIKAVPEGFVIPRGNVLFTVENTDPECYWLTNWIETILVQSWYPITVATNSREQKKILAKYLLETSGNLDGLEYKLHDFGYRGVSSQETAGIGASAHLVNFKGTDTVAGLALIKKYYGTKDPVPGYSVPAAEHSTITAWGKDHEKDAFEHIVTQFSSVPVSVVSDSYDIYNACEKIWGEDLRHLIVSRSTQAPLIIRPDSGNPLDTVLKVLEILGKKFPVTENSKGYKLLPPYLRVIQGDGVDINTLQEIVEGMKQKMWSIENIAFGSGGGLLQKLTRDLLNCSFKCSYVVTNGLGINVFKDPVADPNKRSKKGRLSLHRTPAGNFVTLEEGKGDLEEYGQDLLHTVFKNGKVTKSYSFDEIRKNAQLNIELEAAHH

Take `CC(C)(C)OC(=O)N1CCCC12CCN(S(=O)(=O)c1ccc(CNC(=O)c3ccc4nccn4c3)cc1)CC2` [Example 125, 8-(4-{[(Imidazo[1,2-a]pyridine-6-carbonyl)-amino]-methyl}-benzenesulfonyl)-1,8-diaza-spiro[4.5]decane-1-carboxylic acid tert-butyl ester]: the IC50 at NAMPT was 11.2 nM; in the assay with A2780 cells (Homo sapiens, A2780, 72 h), 1.37 nM.
As for `O=C(NCc1ccc(S(=O)(=O)[C@@H]2CCOC2)cc1)c1ccc2nccn2c1` [Example 227, N-[[4-((3R)-tetrahydrofuran-3-yl]sulfonylphenyl]methyl] imidazo[1,2-a]pyridine-6-carboxamide], the IC50 was 51.3 nM on NAMPT and 98.4 nM in the assay on A2780 cells (Homo sapiens, A2780, 72 h).
In the case of `O=C(NCc1ccc(S(=O)(=O)N2CCC3(CCCNC3)CC2)cc1)c1ccc2nccn2c1` [Example 325, N-[[4-(2,9-diazaspiro[5.5]undecan-9-ylsulfonyl)phenyl]methyl] imidazo[1,2-a]pyridine-6-carboxamide], the IC50 at NAMPT is 25.6 nM; in the assay with A2780 cells (Homo sapiens, A2780, 72 h), 27.5 nM.
Regarding `O=C(NCc1ccc(S(=O)(=O)N2CCC[C@@H](O)C2)cc1)c1ccc2nccn2c1` [Example 53, Imidazo[1,2-a]pyridine-6-carboxylic acid 4-((R)-3-hydroxy-piperidine-1-sulfonyl)-benzylamide], the IC50 turned out to be 16.9 nM at NAMPT and 22.6 nM with A2780 cells (Homo sapiens, A2780, 72 h).
Turning to `CC(=O)N1CCC(S(=O)(=O)c2ccc(CNC(=O)c3cnc4nccn4c3)cc2)CC1` [Example 229, N-[[4-[(1-acetyl-4-piperidyl)sulfonyl]phenyl]methyl]imidazo[1,2-a]pyrimidine-6-carboxamide], the IC50 amounted to 5.12 nM at NAMPT and 527 nM in the assay with A2780 cells (Homo sapiens, A2780, 72 h).
For `O=C(NCc1ccc(S(=O)(=O)C2CCOCC2)cc1)c1ccc2nccn2c1` [Example 200, N-[(4-tetrahydropyran-4-ylsulfonylphenyl)methyl] imidazo[1,2-a]pyridine-6-carboxamide], in that order: 34.5 nM and 14.2 nM.
As to `CC(C)(C)OC(=O)N1CCC2(CC1)CCN(S(=O)(=O)c1ccc(CNC(=O)c3ccc4nccn4c3)cc1)C2` [Example 235, tert-butyl 2-[4-[(imidazo[1,2-a]pyridine-6-carbonylamino)methyl]phenyl] sulfonyl-2,8-diazaspiro[4.5]decane-8-carboxylate], the IC50 worked out at 16.4 nM on NAMPT and 36.3 nM with A2780 cells (Homo sapiens, A2780, 72 h).
In the case of `CC(C)CN1CCC([S+]([O-])c2ccc(CNC(=O)c3ccc4nccn4c3)cc2)CC1` (racemic) [Example 187, N-(4-(1-isobutylpiperidin-4-ylsulfinyl)benzyl)H-imidazo[1,2-a]pyridine-6-carboxamide], the IC50 at NAMPT was 14.2 nM; with A2780 cells (Homo sapiens, A2780, 72 h) it was 5.8 nM.
For `CC(=O)N1CCCN(S(=O)(=O)c2ccc(CNC(=O)c3ccc4nccn4c3)cc2)CC1` [Example 100, Imidazo[1,2-a]pyridine-6-carboxylic acid 4-(4-acetyl-[1,4]diazepane-1-suIfonyl)-benzylamide], the IC50 stood at 25.7 nM at NAMPT and 25.4 nM in the assay on A2780 cells (Homo sapiens, A2780, 72 h).
For `O=C(NCc1ccc(S(=O)(=O)N2CCC(N3CCCC3)CC2)cc1)c1ccc2nccn2c1` [Example 97, Imidazo[1,2-a]pyridine-6-carboxylic acid 4-(4-pyrrolidin-1-yl-piperidine-1-sulfonyl)-benzylamide], the IC50 is 14.4 nM on NAMPT and 5.4 nM in the assay on A2780 cells (Homo sapiens, A2780, 72 h).
Consider `CC(C)(C)OC(=O)N1CCC2(CC1)CN(S(=O)(=O)c1ccc(CNC(=O)c3ccc4nccn4c3)cc1)CCO2` [Example 124, 4-(4-{[(Imidazo[1,2-a]pyridine-6-carbonyl)-amino]-methyl}-benzenesulfonyl)-1-oxa-4,9-diaza-spiro[5.5]undecane-9-carboxylic acid tert-butyl ester], for which the IC50 on NAMPT turned out to be 40.5 nM; with A2780 cells (Homo sapiens, A2780, 72 h) it was 4.65 nM.
On to `O=C(NCc1ccc(S(=O)(=O)N2CCCC(O)C2)cc1)c1cnc2nccn2c1` (racemic) [Example 32, Imidazo[1,2-a]pyrimidine-6-carboxylic acid 4-(3-hydroxy-piperidine-1-sulfonyl)-benzylamide], for which the IC50 came out at 7.7 nM at NAMPT and 861 nM with A2780 cells (Homo sapiens, A2780, 72 h).
`N#CCCN1CCN(S(=O)(=O)c2ccc(CNC(=O)c3ccc4nccn4c3)cc2)CC1` [Example 104, Imidazo[1,2-a]pyridine-6-carboxylic acid 4-[4-(2-cyano-ethyl)-piperazine-1-sulfonyl]-benzylamide]: the IC50 worked out at 26.9 nM on NAMPT and 8.8 nM in the assay with A2780 cells (Homo sapiens, A2780, 72 h).
On to `CC(C)(C)OC(=O)N1CC2CN(S(=O)(=O)c3ccc(CNC(=O)c4ccc5nccn5c4)cc3)CC(C1)O2` (racemic) [Example 133, cis-7-(4-{[(Imidazo[1,2-a]pyridine-6-carbonyl)-amino]-methyl}-benzenesulfonyl)-9-oxa-3,7-diaza-bicyclo[3.3.1]nonane-3-carboxylic acid tert-butyl ester], for which the IC50 at NAMPT came to 330 nM; in the assay on A2780 cells (Homo sapiens, A2780, 72 h), 96.9 nM.
For `O=C(NCc1ccc(S(=O)(=O)N2CCC(O)CC2)cc1)c1cnc2[nH]ncc2c1` [Example 30, 1H-Pyrazolo[3,4-b]pyridine-5-carboxylic acid 4-(4-hydroxy-piperidine-1-sulfonyl)-benzylamide], in that order: 178 nM and 205 nM.
The corresponding values for `CN1CCC2CN(S(=O)(=O)c3ccc(CNC(=O)c4ccc5nccn5c4)cc3)CC21` (racemic) [Example 144, cis-Imidazo[1,2-a]pyridine-6-carboxylic acid 4-(1-methyl-hexahydro-pyrrolo[3,4-b]pyrrole-5-sulfonyl)-benzylamide] are 54 nM and 9.6 nM.
For `CS(=O)(=O)N1CCC(S(=O)(=O)c2ccc(CNC(=O)c3cnc4[nH]ncc4c3)cc2)C1` (stereo not drawn) [Example 354, N-[[4-(1-methylsulfonylpyrrolidin-3-yl)sulfonylphenyl]methyl]-1H-pyrazolo[3,4-b]pyridine-5-carboxamide], the IC50 on NAMPT worked out at 413 nM; in the assay on A2780 cells (Homo sapiens, A2780, 72 h), 726 nM.
Regarding “tert-butyl 7-[4-[(imidazo[1,2- a]pyridine-6- carbonylamino)methyl]phenyl] sulfonyl-1,7- diazaspiro[4.4]nonane-1- carboxylate [Example 236]”, the IC50 was 13.3 nM on NAMPT and 1.79 nM with A2780 cells.
For `CN1CC2CN(S(=O)(=O)c3ccc(CNC(=O)c4ccc5nccn5c4)cc3)CC(C1)O2` (racemic) [Example 142, cis-Imidazo[1,2-a]pyridine-6-carboxylic acid 4-(7-methyl-9-oxa-3,7-diaza-bicyclo[3.3.1]nonane-3-sulfonyl)-benzylamide], the IC50 at NAMPT worked out at 113 nM; in the assay on A2780 cells (Homo sapiens, A2780, 72 h), 28.6 nM.
For `CCCN1CCC(S(=O)(=O)c2ccc(CNC(=O)c3cc4ccncc4o3)cc2)CC1` [Example 342, N-[[4-[(1-propyl-4-piperidyl)sulfonyl]phenyl]methyl]furo[2,3-c]pyridine-2-carboxamide], in that order: 20.3 nM and 23 nM.
On to `O=C(NCc1ccc(S(=O)(=O)N2CC3CCC(C2)O3)cc1)c1cc2ccncc2s1` [Example 3, Thieno[2,3-c]pyridine-2-carboxylic acid 4-(8-oxa-3-aza-bicyclo[3.2.1]octane-3-sulfonyl)-benzylamide], for which the IC50 on NAMPT turned out to be 12.6 nM; in the assay on A2780 cells (Homo sapiens, A2780, 72 h) it was 6.4 nM.
Take `O=C(NCc1ccc(S(=O)(=O)N2CCOCC2)cc1)c1cnc2[nH]ncc2c1` [Example 9, 1H-Pyrazolo[3,4-b]pyridine-5-carboxylic acid 4-(morpholine-4-sulfonyl)-benzylamide]: the IC50 at NAMPT was 105 nM; in the assay on A2780 cells (Homo sapiens, A2780, 72 h) it was 278 nM.
For `O=C(NCc1ccc(S(=O)(=O)[C@H]2CCOC2)cc1)c1cc2ccncc2o1` [Example 230, N-[[4-[(3S)-tetrahydrofuran-3-yl]sulfonylphenyl]methyl]furo [2,3-c]pyridine-2-carboxamide], the IC50 on NAMPT worked out at 73.8 nM; with A2780 cells (Homo sapiens, A2780, 72 h), 243 nM.
The corresponding values for `O=C(NCc1ccc(S(=O)(=O)N2CCCC3(CCCN3)CC2)cc1)c1ccc2nccn2c1` (stereo not drawn) [Example 334, N-[[4-(1,9-diazaspiro[4.6]undecan-9-ylsulfonyl)phenyl]methyl] imidazo[1,2-a]pyridine-6-carboxamide] are 26.7 nM and 26 nM.
For `O=C(NCc1ccc(S(=O)(=O)N2CC3CC2CC3F)cc1)c1ccc2nccn2c1` (racemic) [Example 164, cis-Imidazo[1,2-alpyridine-6-carboxylic acid 4-(5-fluoro-2-aza-bicyclo[2.2.1]heptane-2-sulfonyl)-benzylamide], in that order: 8.1 nM and 12.4 nM.
As to `O=C(NCc1ccc(S(=O)(=O)C2CCOCC2)cc1)c1cnc2[nH]ncc2c1` [Example 198, N-[(4-tetrahydropyran-4-ylsulfonylphenyl)methyl]-1H-pyrazolo[3,4-b]pyridine-5-carboxamide], the IC50 on NAMPT is 308 nM; with A2780 cells (Homo sapiens, A2780, 72 h), 452 nM.
For `O=C(NCc1ccc(S(=O)(=O)N2CC3CCC(C2)O3)cc1)c1ccc2nccn2c1` [Example 4, Imidazo[1,2-a]pyridine-6-carboxylic acid 4-(8-oxa-3-aza-bicyclo[3.2.1]octane-3-sulfonyl]-benzylamide], in that order: 72 nM and 7.4 nM.
For the compound `CN1CCC([S+]([O-])c2ccc(CNC(=O)N3Cc4ccncc4C3)cc2)CC1` (stereo not drawn) [Example 372, N-[[4-[(1-methyl-4-piperidyl)sulfinyl]phenyl]methyl]-1,3-dihydropyrrolo[3,4-c]pyridine-2-carboxamide], the IC50 was 57.6 nM on NAMPT and 61.2 nM in the assay with A2780 cells (Homo sapiens, A2780, 72 h).
For the compound `O=C(NCc1ccc(S(=O)(=O)N2CC3CC3C2)cc1)c1ccc2nccn2c1` (stereo not drawn) [Example 160, Imidazo[1,2-a]pyridine-6-carboxylic acid 4-(3-aza-bicyclo[3.1.0]hexane-3-sulfonyl)-benzylamide], the IC50 at NAMPT was 4.7 nM; in the assay on A2780 cells (Homo sapiens, A2780, 72 h), 15.3 nM.
For `O=C(NCc1ccc(S(=O)(=O)C2CCN(C3COC3)CC2)cc1)c1cnc2nccn2c1` [Example 251, N-[[4-[[1-(oxetan-3-yl)-4-piperidyl]sulfonyl]phenyl]methyl]imidazo[1,2-a] pyrimidine-6-carboxamide], the IC50 on NAMPT stood at 4.13 nM; with A2780 cells, 121 nM.
